Reference: patent US11304949B2, “Treatment of hidradenitis suppurativa using JAK inhibitors” (Incyte Corporation, priority 2018, dated 2022)

Experiments:
[1] = test system: Transformed human keratinocyte (HaCaT) cells stimulated with TNFα and IFNγ; experiment: JAK inhibitors in TNFα/IFNγ stimulated keratinocytes, gene expression (QuantiGene Plex); details: 24 hours, normalized to HPRT1, mean ± standard error
[2] = test system: Transformed human keratinocyte (HaCaT) cells stimulated with TNFα and IFNγ; experiment: JAK inhibitors in TNFα/IFNγ stimulated keratinocytes, inflammatory mediators in media (ProCarta Multiplex Immunoassay); details: mean ± 1 standard error
[3] = biological target: human JAK1 (a.a. 837-1142) (Homo sapiens, UniProt P23458); experiment: In vitro JAK kinase assay (HTRF), JAK1; format: biochemical; details: 1 mM ATP
[4] = test system: human JAK1 (a.a. 837-1142); experiment: In vitro JAK kinase assay (HTRF), JAK1; format: biochemical; details: IC50 ratio at 1 mM ATP
[5] = TNFα (25 ng/mL) and IFNγ (25 ng/mL), drug 25 nM
[6] = TNFα (25 ng/mL) and IFNγ (25 ng/mL), drug 50 nM
[7] = TNFα (25 ng/mL) and IFNγ (25 ng/mL), drug 100 nM
[8] = TNFα (25 ng/mL) and IFNγ (25 ng/mL), drug 200 nM
[9] = TNFα (25 ng/mL) and IFNγ (25 ng/mL) stimulation, drug 25 nM
[10] = TNFα (25 ng/mL) and IFNγ (25 ng/mL) stimulation, drug 50 nM
[11] = TNFα (25 ng/mL) and IFNγ (25 ng/mL) stimulation, drug 100 nM
[12] = TNFα (25 ng/mL) and IFNγ (25 ng/mL) stimulation, drug 200 nM

IC50 [3]: < 0.01 µM
JAK2/JAK1 [4]: >10
Structure (SMILES): N#CCC1(n2cc(-c3ncnc4[nH]ccc34)cn2)CN(C2CCN(C(=O)c3ccnc(C(F)(F)F)c3F)CC2)C1 [Compound 1, {1-{1-[3-Fluoro-2-(trifluoromethyl)isonicotinoyl]piperidin-4-yl}-3-[4-(7H-pyrrolo[2,3-d]pyrimidin-4-yl)-1H-pyrazol-1-yl]azetidin-3-yl}acetonitrile]
IL-1α MFI [1, 5]: 1288.02 ± 20
IL-6 MFI [1, 5]: 130.24 ± 3.84
JAK1 MFI [1, 5]: 216.23 ± 6.41
JAK2 MFI [1, 5]: 109.39 ± 2.8
JAK3 MFI [1, 5]: 0.84 ± 0.12
STAT1 MFI [1, 5]: 2868.69 ± 202.69
STAT3 MFI [1, 5]: 1466.73 ± 66.75
STAT4 MFI [1, 5]: 6.00 ± 0.46
STAT5A MFI [1, 5]: 23.69 ± 1.63
STAT6 MFI [1, 5]: 1004.82 ± 23.76
TYK2 MFI [1, 5]: 292.92 ± 7.99
IL-1α MFI [1, 6]: 1258.76 ± 23.63
IL-6 MFI [1, 6]: 122.69 ± 4.36
JAK1 MFI [1, 6]: 210.42 ± 10.89
JAK2 MFI [1, 6]: 101 ± 2.26
JAK3 MFI [1, 6]: 0.83 ± 0.15
STAT1 MFI [1, 6]: 2862.58 ± 163.98
STAT3 MFI [1, 6]: 1437.28 ± 60.69
STAT4 MFI [1, 6]: 6.22 ± 0.42
STAT5A MFI [1, 6]: 22.32 ± 2.16
STAT6 MFI [1, 6]: 990.05 ± 21.06
TYK2 MFI [1, 6]: 287.31 ± 11.08
IL-1α MFI [1, 7]: 1162.35 ± 23.34
IL-6 MFI [1, 7]: 111.07 ± 4.74
JAK1 MFI [1, 7]: 205.03 ± 11.49
JAK2 MFI [1, 7]: 94.5 ± 2.65
JAK3 MFI [1, 7]: 0.92 ± 0.13
STAT1 MFI [1, 7]: 2790.32 ± 176.4
STAT3 MFI [1, 7]: 1373.34 ± 55.51
STAT4 MFI [1, 7]: 6.21 ± 0.48
STAT5A MFI [1, 7]: 20.87 ± 2.1
STAT6 MFI [1, 7]: 987.64 ± 15.75
TYK2 MFI [1, 7]: 284.15 ± 9.62
IL-1α MFI [1, 8]: 1126.94 ± 26.22
IL-6 MFI [1, 8]: 93.03 ± 3.25
JAK1 MFI [1, 8]: 195.97 ± 10.45
JAK2 MFI [1, 8]: 89.16 ± 3.43
JAK3 MFI [1, 8]: 0.79 ± 0.15
STAT1 MFI [1, 8]: 2857.2 ± 174.57
STAT3 MFI [1, 8]: 1400.77 ± 58.44
STAT4 MFI [1, 8]: 6.27 ± 0.56
STAT5A MFI [1, 8]: 19.2 ± 1.94
STAT6 MFI [1, 8]: 985.17 ± 29.31
TYK2 MFI [1, 8]: 277.52 ± 8.67
IL-1α MFI ([1]; no stimulation, drug 200 nM): 85.16 ± 6.50
IL-6 MFI ([1]; no stimulation, drug 200 nM): 4.97 ± 0.36
JAK1 MFI ([1]; no stimulation, drug 200 nM): 171.53 ± 9.49
JAK2 MFI ([1]; no stimulation, drug 200 nM): 25.21 ± 1.12
JAK3 MFI ([1]; no stimulation, drug 200 nM): 0.63 ± 0.10
STAT1 MFI ([1]; no stimulation, drug 200 nM): 535.07 ± 22.13
STAT3 MFI ([1]; no stimulation, drug 200 nM): 732.19 ± 23.03
STAT4 MFI ([1]; no stimulation, drug 200 nM): 4.01 ± 0.45
STAT5A MFI ([1]; no stimulation, drug 200 nM): 1.44 ± 0.41
STAT6 MFI ([1]; no stimulation, drug 200 nM): 740.11 ± 34.98
TYK2 MFI ([1]; no stimulation, drug 200 nM): 217.28 ± 10.09
IL-1α concentration in media [2, 9]: 7.34 ± 0.31 pg/mL
IL-6 concentration in media [2, 9]: 749.64 ± 32.94 pg/mL
IP-10/CXCL10 concentration in media [2, 9]: 4068.98 ± 507.12 pg/mL
MIP1α concentration in media [2, 9]: 103.81 ± 3.29 pg/mL
RANTES concentration in media [2, 9]: 203.77 ± 12.55 pg/mL
IL-1α concentration in media [2, 10]: 7.06 ± 0.37 pg/mL
IL-6 concentration in media [2, 10]: 674.21 ± 27.15 pg/mL
IP-10/CXCL10 concentration in media [2, 10]: 3872.74 ± 295.01 pg/mL
MIP1α concentration in media [2, 10]: 100.64 ± 4.66 pg/mL
RANTES concentration in media [2, 10]: 198.35 ± 15.1 pg/mL
IL-1α concentration in media [2, 11]: 7 ± 0.41 pg/mL
IL-6 concentration in media [2, 11]: 643.8 ± 27.14 pg/mL
IP-10/CXCL10 concentration in media [2, 11]: 4050.7 ± 471.31 pg/mL
MIP1α concentration in media [2, 11]: 91.52 ± 5.05 pg/mL
RANTES concentration in media [2, 11]: 194.21 ± 12.67 pg/mL
IL-1α concentration in media [2, 12]: 6.16 ± 0.35 pg/mL
IL-6 concentration in media [2, 12]: 568.73 ± 24.74 pg/mL
IP-10/CXCL10 concentration in media [2, 12]: 4071.78 ± 411.22 pg/mL
MIP1α concentration in media [2, 12]: 83.1 ± 2.77 pg/mL
RANTES concentration in media [2, 12]: 183.18 ± 13.92 pg/mL
IL-1α concentration in media ([2]; no stimulation, drug 200 nM): 0.29 ± 0.03 pg/mL
IL-6 concentration in media ([2]; no stimulation, drug 200 nM): 28.49 ± 2.89 pg/mL
IP-10/CXCL10 concentration in media ([2]; no stimulation, drug 200 nM): 19.83 ± 0.40 pg/mL
MIP1α concentration in media ([2]; no stimulation, drug 200 nM): 2.75 ± 0.26 pg/mL
RANTES concentration in media ([2]; no stimulation, drug 200 nM): 8.42 ± 0.51 pg/mL
